The values that follow come from ChEMBL document CHEMBL1150043, “Pachyclavulariolides M-R, six novel diterpenoids from a Taiwanese soft coral Pachyclavularia violacea” (2003).

In brackets after ≈: the same amount, converted by molar mass.

The test system of this experiment is P388. Nature of the experiment: Cytotoxicity against mouse P388 cells by MTT method. It counts as functional. The settings on record: read-out: ED50 (the source's name). (In general: Tetrazolium dyes change colour on reduction, which living cells bring about.)

As for `CC(=O)O[C@@H]1[C@@H](OC(C)=O)C2=C(C)C(=O)O[C@]2(O)C[C@@]2(C)O[C@@H]2CC[C@H](C)[C@H]2CC[C@]1(C)O2` [PACHYCLAVULARIOLIDE M], the EC50 stood at 3.2 µg/mL (≈ 6.86 µM).
